The text below walks through data of patent US10314784B2, “Compositions of glycopyrronium salt for inhalation” (Novartis AG, priority 2006, dated 2019).

The nature of series [1]: Particle size of micronised drug substance after jet milling. It counts as physicochemical. The settings on record: after micronisation in jet mill. On the procedure:
37 g of magnesium […] are mixed with 1 kg of crystalline glycopyrronium bromide in a Turbula® blender for 5 hours. The resulting mixture is micronised using a Hosokawa Alpine® 100 AFG fluid bed opposed jet mill with the following parameters: classifier speed, 13000 rpm; milling gas pressure, 3.5 bar. The mill is equipped with 3 nozzles of 1.9 mm diameter.
The resulting mixture has a median particle size of about 3 micron (x90=7 micron, x50=3 micron, x10=1 micron). The magnesium stearate is well distributed over the drug substance surface.
Drug substance 1:50 g of magnesium stearate are mixed with 1 kg of crystalline glycopyrronium bromide in a Turbula® blender for 5 hours. The resulting mixture is micronised using a Hosokawa Alpine® 100 AFG fluid bed opposed jet mill (equipped with 3 nozzles of 1.9 mm diameter) with the following parameters: classifier speed, 13000 rpm; milling gas pressure, 3.5 bar, to give particles that have an average particle size of less than 5 microns.
Drug substance 2: 1 kg of crystalline glycopyrroninum bromide is micronised using a Hosokawa Alpine® 100 AFG fluid bed opposed jet mill (equipped with 3 nozzles of 1.9 mm diameter) with the following parameters: classifier speed, 13000 rpm; milling gas pressure, 3.5 bar, to give particles that have an average particle size of less than 5 microns.

The conditions of series [2]: single administration of a metered dose, aerosol formulation, asthma; cited from earlier work.

For `C[N+]1(C)CCC(OC(=O)C(O)(c2ccccc2)C2CCCC2)C1` (centres unmarked) [Drug substance 2, glycopyrroninum bromide], the average particle size result in series [1] is “less than 5 microns”. Consider `C[N+]1(C)CCC(OC(=O)C(O)(c2ccccc2)C2CCCC2)C1.[Br-]` (centres unmarked) [glycopyrrolate, 3-[(cyclopentyl-hydroxyphenylacetyl)oxy]-1,1-dimethyl-pyrrolidinium bromide], for which, in series [2], the duration of bronchodilation entry is listed as “up to 12 hours”.
